According to ChEMBL document CHEMBL1201862, “PubChem BioAssay data set” (2004):
Active and inactive are the calls of the source.

Experiments:
[1] = biological target: T1, Neuropeptide Y receptor type 1 (Homo sapiens, UniProt P25929); type: functional;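 also: HEK293 cells with a CNG channel challenged with NPY then isoproterenol; potency as antagonist that reverses NPY suppression of cAMP signal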
T1 sequence (P25929 whole entry): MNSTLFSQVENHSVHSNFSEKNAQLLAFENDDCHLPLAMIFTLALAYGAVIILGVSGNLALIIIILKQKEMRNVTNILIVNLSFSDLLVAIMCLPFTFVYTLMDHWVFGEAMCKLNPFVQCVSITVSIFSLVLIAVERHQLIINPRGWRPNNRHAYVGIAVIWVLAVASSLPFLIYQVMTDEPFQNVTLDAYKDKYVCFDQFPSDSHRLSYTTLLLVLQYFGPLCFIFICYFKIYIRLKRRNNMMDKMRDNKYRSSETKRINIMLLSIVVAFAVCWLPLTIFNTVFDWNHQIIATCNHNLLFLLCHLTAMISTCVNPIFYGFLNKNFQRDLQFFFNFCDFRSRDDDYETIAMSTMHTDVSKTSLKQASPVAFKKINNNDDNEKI

[2] = biological target: T2, Neuropeptide Y receptor type 2 (Homo sapiens, UniProt P49146); type: functional, cell-based;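 also: HEK293 cells expressing the receptor and a CNG channel; stimulus was NPY near EC95 followed by isoproterenol to raise cAMP; antagonist potency measured as restoring cAMP signal that NPY suppresses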
T2 sequence (P49146 whole entry): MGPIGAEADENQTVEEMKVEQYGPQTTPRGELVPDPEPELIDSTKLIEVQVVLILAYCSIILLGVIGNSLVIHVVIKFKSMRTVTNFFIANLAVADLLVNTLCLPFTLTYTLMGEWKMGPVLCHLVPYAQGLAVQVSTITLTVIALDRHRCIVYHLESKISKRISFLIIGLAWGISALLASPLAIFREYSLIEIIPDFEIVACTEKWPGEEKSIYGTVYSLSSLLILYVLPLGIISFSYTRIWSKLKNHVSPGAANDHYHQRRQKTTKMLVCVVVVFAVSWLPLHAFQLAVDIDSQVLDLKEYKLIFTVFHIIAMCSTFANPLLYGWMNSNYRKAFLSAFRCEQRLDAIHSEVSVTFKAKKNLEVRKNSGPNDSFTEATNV

[3] = biological target: Neurotensin receptor type 1 (Homo sapiens, UniProt P30989); type: functional;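 also: Image-based confirmatory dose-response assay measuring agonist activity at NTR1; NTR1-expressing U2OS osteosarcoma cells imaged for beta-arrestin GFP spot formation; agonist potency where compounds increase beta-arrestin recruitment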
[4] = inhibitors of SNCA 5'UTR-driven translation, confirmation, luminescence, H4 neuroglioblastoma cells, dose confirmation (AID 2454); type: functional, cell-based;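 also: H4 neuroglioblastoma cells carrying an alpha-synuclein 5'UTR luciferase reporter; potency for inhibition of the luciferase signal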
BJ [5] = test: cells; type: functional, cell-based; settings: Homo sapiens
[6] = luciferase reporter signal reduction – luminescence, H4-C neuroglioblastoma cells, dose response (AID 2458); type: functional, cell-based;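 also: H4 neuroglioblastoma cells stably carrying a luciferase reporter gene fusion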
BJ [7] = test: cytotoxicity toward BJ-TERT fibroblasts, dose response, cell-based, RAS-independent, luminescence (AID 1933); type: functional; settings: Homo sapiens
[8] = inhibitors of firefly luciferase expression or activity, dose response, H4 neuroglioma cells, luminescence (AID 1990); type: functional, cell-based
[9] = Luminescence Cell-Based Dose Response HTS to Identify Inhibitors of 5'UTR Stem-Loop Driven Prion Protein mRNA Translation in H4 Neuroglioblastoma Cells. [Related pubchem assays: 1827 (Project Summary), 1813 (Primary HTS)]; type: functional
[10] = inhibitors of SNCA 5'UTR-driven reporter translation, confirmation, H4 neuroglioma cells, luminescence (AID 1988); type: functional, cell-based
[11] = cytotoxicity toward DRD oncogenic fibroblasts, dose response, cell-based, non-viral oncogenic, luminescence (AID 1934); type: functional; settings: Homo sapiens
BJ [12] = test: cytotoxicity toward BJ-TERT-LT-ST fibroblasts, dose response, cell-based, RAS-independent, luminescence (AID 1935); type: functional; settings: Homo sapiens;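 also: BJ fibroblasts immortalized with TERT plus LT and ST oncogenes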
cells [13] = type: functional, cell-based
[14] = A Cell Based Secondary Assay To Explore Cytotoxicity of Compounds that Sensitize Mycobacterium Tuberculosis to Beta-Lactam Antibiotics.; type: functional
[15] = cytotoxicity toward NIH3T3 fibroblasts, dose response, counter-screen, cell-based, ATP luminescence, mouse fibroblasts (AID 2010); type: functional;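 also: cells exposed to compound for about 90 hours before reading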
[16] = biological target: Heat shock protein HSP 90-alpha (Homo sapiens, UniProt P07900); type: functional, organism-based
[17] = inhibitors of intracellular T. cruzi replication, confirmation, NIH3T3 host cells, beta-gal luminescence (AID 2044); type: functional, cell-based;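 also: intracellular parasites grown in NIH/3T3 mouse fibroblasts as host cells; luminescent beta-galactosidase reporter signal from transgenic T. cruzi replicating inside host cells; inhibitors lower the luminescence signal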
cells [18] = test: cells
Bcl-2-like protein 1 = Bcl-2-like protein 1 (Homo sapiens, UniProt Q07817); test: BCL-XL inhibitors, dose response, selectivity assay for MCL1 inhibitor project, biochemical, fluorescence polarization, 1536-well (AID 2218)
[19] = biological target: Induced myeloid leukemia cell differentiation protein Mcl-1 (Homo sapiens, UniProt Q07820); test: MCL1-BIM BH3 interaction inhibitors, dose response, biochemical, fluorescence polarization, BIM-BH3 peptide, 1536-well (AID 2217)
Cytochrome P450 3A4 = Cytochrome P450 3A4 (Homo sapiens, UniProt P08684); settings: Potency;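 also: confirmatory qHTS run detecting inhibitors and substrates of CYP3A4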
Estrogen receptor = biological target: T3, Estrogen receptor (Homo sapiens, UniProt P03372);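 also: potency for inhibiting coactivator peptide recruitment to the receptor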
T3 sequence (P03372 whole entry): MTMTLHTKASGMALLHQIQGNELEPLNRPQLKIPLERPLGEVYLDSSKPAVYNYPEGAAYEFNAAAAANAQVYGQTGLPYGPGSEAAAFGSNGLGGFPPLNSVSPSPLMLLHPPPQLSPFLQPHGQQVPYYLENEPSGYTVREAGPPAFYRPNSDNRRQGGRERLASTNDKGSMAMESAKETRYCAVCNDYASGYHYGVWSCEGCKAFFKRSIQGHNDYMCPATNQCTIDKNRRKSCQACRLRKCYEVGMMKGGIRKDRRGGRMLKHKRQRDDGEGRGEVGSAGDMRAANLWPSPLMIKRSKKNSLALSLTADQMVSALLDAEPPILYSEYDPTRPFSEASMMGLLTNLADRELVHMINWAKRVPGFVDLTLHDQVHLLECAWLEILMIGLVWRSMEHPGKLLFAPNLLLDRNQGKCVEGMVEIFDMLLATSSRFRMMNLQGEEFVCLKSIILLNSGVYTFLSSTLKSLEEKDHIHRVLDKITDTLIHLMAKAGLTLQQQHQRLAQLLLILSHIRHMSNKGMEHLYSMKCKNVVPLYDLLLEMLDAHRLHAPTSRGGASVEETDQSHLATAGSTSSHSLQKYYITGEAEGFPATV

[20] = biological target: T4, Heat shock factor protein 1 (Mus musculus, UniProt P38532); test: inhibition of MG132-induced HSE-luciferase signal, confirmation, cell-based, NIH3T3, luminescence, dose retest (AID 2382); type: functional;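 also: NIH3T3 fibroblasts with HSF1-driven luciferase reporter stressed by proteasome inhibitor MG132; luminescence from HSF1-driven luciferase expression after 8 hours of MG132 stress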
T4 sequence (P38532 whole entry): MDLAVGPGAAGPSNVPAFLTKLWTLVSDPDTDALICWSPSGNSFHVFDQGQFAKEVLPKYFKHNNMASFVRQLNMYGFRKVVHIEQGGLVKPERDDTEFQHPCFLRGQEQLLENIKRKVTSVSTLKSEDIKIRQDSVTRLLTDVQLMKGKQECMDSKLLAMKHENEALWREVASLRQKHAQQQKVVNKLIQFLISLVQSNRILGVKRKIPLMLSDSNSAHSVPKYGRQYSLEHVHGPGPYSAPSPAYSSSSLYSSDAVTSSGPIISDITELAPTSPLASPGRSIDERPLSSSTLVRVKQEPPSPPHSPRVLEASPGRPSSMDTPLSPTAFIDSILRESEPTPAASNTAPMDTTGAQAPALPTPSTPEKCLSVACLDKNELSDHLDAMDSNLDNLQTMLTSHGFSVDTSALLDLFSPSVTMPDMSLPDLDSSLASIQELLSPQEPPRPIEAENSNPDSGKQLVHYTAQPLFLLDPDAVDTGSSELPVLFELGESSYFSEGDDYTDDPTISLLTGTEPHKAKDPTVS

Estrogen receptor beta = Estrogen receptor beta (Homo sapiens, UniProt Q92731);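 also: recombinant ER-beta bound to coactivator SRC1 peptide in presence of estradiol agonist; inhibitors block coactivator peptide binding and lower the FRET signal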
[21] = biological target: Melanin-concentrating hormone receptor 1 (Homo sapiens, UniProt Q99705); test: Late-stage fluorescence-based counterscreen for antagonists of the G-protein coupled receptor 7 (GPR7): cell-based dose response assay to identify antagonists of the melanin-concentrating hormone receptor 1 (MCHR1). [Related pubchem assays (depositor defined):AID1861, AID1880, AID1952, AID2148, AID2251, AID2257, AID485339]; type: functional;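 also: stimulated with 30 nM MCH peptide agonist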
[22] = P. falciparum Dd2 growth inhibitors, dose response, SYBR Green, cherry-picked samples (AID 1159567); type: functional, cell-based
[23] = P. falciparum ATP4 D1247Y mutant growth inhibitors, dose response, NITD609-resistant line, SYBR Green, dry powder (AID 1159571); type: functional, cell-based;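 also: parasites synchronized at ring stage by sorbitol before testing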
[24] = P. falciparum 3D7-ScDHODH growth inhibitors, dose response, SYBR Green, dry powder samples (AID 1159570); type: functional, cell-based;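 also: parasite growth measured after 72 hours of compound exposure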
[25] = P. falciparum Dd2 growth inhibitors, dose response, SYBR Green, dry powder samples (AID 1159566); type: functional, cell-based;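 also: potency for growth inhibition with lower SYBR green DNA signal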
[26] = HepG2 cell cytotoxicity, dose response, cytotoxicity control, plate reader, dry powder samples (AID 1159569); type: functional, cell-based;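 also: inhibitor potency with signal falling toward the positive control level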
[27] = inhibitors of HIV Env-driven cell fusion, dose response, cherry-pick (AID 652057); type: functional, cell-based

Chain of Estrogen receptor beta (Q92731 whole entry): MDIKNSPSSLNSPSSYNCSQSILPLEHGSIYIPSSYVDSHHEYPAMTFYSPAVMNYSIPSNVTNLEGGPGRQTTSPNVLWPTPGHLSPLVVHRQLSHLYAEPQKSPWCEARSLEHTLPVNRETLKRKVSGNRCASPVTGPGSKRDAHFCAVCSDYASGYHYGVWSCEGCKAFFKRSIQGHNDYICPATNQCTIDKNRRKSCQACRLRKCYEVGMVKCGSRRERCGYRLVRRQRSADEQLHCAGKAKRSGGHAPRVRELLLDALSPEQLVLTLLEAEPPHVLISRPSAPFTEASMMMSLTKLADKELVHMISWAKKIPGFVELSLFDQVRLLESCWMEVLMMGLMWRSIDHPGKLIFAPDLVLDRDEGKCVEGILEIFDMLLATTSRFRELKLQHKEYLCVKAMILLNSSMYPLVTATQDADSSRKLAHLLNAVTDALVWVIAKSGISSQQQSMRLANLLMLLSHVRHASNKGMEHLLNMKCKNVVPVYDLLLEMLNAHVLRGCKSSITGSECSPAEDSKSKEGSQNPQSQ
Chain of Neurotensin receptor type 1 (P30989 whole entry): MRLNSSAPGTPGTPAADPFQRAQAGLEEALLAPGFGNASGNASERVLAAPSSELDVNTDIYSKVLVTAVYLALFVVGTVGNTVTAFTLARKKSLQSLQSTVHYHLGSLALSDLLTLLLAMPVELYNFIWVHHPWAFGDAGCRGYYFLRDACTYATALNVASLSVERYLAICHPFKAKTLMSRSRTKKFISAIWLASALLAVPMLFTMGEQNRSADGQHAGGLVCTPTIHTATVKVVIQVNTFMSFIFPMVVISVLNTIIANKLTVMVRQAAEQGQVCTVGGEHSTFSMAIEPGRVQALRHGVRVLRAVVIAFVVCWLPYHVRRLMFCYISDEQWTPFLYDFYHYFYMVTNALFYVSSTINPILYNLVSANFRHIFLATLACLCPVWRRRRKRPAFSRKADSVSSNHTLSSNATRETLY
Chain of Cytochrome P450 3A4 (P08684 whole entry): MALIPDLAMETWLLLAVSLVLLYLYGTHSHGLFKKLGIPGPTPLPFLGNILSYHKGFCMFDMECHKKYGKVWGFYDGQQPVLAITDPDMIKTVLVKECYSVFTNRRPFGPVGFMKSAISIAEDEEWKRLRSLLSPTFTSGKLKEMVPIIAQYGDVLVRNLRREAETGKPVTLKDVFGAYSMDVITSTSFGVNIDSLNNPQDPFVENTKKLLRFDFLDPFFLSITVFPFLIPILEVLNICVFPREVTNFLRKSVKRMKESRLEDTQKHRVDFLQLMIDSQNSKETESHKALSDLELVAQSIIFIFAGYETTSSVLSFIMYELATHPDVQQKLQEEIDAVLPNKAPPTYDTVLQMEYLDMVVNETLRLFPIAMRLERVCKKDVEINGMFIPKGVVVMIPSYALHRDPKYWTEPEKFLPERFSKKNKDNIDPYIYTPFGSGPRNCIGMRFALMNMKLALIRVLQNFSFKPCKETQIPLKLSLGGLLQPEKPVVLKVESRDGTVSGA
Chain of Melanin-concentrating hormone receptor 1 (Q99705 whole entry): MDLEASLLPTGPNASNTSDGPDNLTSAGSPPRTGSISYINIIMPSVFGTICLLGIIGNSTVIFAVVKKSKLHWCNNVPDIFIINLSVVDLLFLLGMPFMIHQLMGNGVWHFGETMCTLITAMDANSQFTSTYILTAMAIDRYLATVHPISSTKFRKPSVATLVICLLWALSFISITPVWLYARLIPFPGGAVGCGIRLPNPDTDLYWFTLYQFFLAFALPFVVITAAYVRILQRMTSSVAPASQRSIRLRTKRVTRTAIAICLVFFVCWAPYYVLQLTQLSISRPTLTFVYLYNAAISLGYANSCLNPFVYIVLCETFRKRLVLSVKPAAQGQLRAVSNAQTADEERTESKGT
Chain of Bcl-2-like protein 1 (Q07817 whole entry): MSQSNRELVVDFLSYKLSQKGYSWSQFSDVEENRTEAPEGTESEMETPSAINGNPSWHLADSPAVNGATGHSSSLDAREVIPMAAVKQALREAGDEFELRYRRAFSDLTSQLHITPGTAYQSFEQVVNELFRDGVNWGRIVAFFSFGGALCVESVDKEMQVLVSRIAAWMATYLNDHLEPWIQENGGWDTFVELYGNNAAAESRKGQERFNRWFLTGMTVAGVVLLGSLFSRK
Chain of Induced myeloid leukemia cell differentiation protein Mcl-1 (Q07820 whole entry): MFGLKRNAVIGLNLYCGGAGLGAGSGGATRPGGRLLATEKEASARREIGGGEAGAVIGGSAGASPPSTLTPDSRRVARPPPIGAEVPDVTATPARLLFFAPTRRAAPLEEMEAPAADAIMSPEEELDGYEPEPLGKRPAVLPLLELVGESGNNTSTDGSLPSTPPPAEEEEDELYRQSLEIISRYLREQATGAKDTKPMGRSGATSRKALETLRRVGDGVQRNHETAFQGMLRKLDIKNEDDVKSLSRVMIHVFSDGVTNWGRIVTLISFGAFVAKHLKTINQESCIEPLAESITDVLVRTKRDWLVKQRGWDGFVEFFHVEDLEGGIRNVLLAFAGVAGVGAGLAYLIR

**Q.** Which results are given for `O=C(O)CSc1nnc(-c2ccc3c(c2)OCO3)o1`?
**A.** IC50 [1]: > 35 µM (not active); IC50 [2]: > 35 µM (not active)

**Q.** Which EC50 [3] does the source give for `COc1cccc(/C=C/C(=O)c2cccc([N+](=O)[O-])c2)c1OC` here?
**A.** 9.39 µM (active)

**Q.** What does the source list for `Brc1ccc(C2=Nn3c(nnc3-c3[nH]nc4c3CCC4)SC2)cc1`?
**A.** EC50 [4]: 1.97 µM (active); EC50 (BJ [5]): 43.5 µM (active); EC50 [6]: > 3.8 µM (not active); EC50 (BJ [7]): 2.33 µM (active); EC50 [8]: 11.9 µM (active); EC50 [9]: > 120 µM (not active); EC50 [10]: < 100 nM (active); EC50 [11]: 1.65 µM (active); EC50 (BJ [12]): 138 µM (inconclusive); EC50 (cells [13]): 2.12 µM (active)

**Q.** With `C=C(C)COc1ccc2c(C)c(C)c(=O)oc2c1OCC(=C)C` as the molecule, how does the CC50 [14] read?
**A.** > 40 µM (active)

**Q.** Which results are given for `Cc1sc(NC(=O)c2ccco2)c(C(c2cccnc2)N2CCC(C)CC2)c1C` (stereo not drawn)?
**A.** EC50 [15]: 9.92 µM (active); AC50 [16]: 4.94 µM (active); EC50 [17]: < 100 nM (active); EC50 (cells [18]): 182 nM (active)

**Q.** Which results are given for `C[C@H](NS(=O)(=O)OCC(Cl)(Cl)Cl)C1CC1c1ccccc1` (stereo partly drawn)?
**A.** IC50 (Bcl-2-like protein 1): > 109 µM (not active); IC50 [19]: 65.4 µM (not active)

**Q.** For `COC(=O)[C@@]1(C)C=C[C@@H](Cc2ccccc2)N1C(=O)c1ccccc1`, which AC50 (Cytochrome P450 3A4) is on record?
**A.** 20 µM (inconclusive)

**Q.** For `COc1ccc(NC(=O)c2ccco2)cc1N`, which IC50 (Estrogen receptor) is on record?
**A.** 36.1 µM (not active)

**Q.** And the EC50 [20]?
**A.** > 195 µM (not active)

**Q.** What about the IC50 (Estrogen receptor beta) of the same molecule?
**A.** 10.7 µM (active)

**Q.** Which results are given for `O=C(COc1ncnc2cc([N+](=O)[O-])ccc12)NCCc1ccc(Cl)cc1`?
**A.** EC50 [15]: > 30 µM (not active); EC50 [17]: < 100 nM (active); EC50 (cells [18]): 377 nM (active)

**Q.** With `CCc1ccc2oc(-c3cc(N)cc(C)c3O)nc2c1` as the molecule, how does the CC50 [14] read?
**A.** > 40 µM (active)

**Q.** For `COc1cc(CN2CCCCC2)ccc1OCc1ccccc1`, which EC50 [15] is on record?
**A.** > 60 µM (not active)

**Q.** And the EC50 [17]?
**A.** < 100 nM (active)

**Q.** What about the EC50 (cells [18]) of the same molecule?
**A.** 670 nM (active)

**Q.** With `CCOc1ccc(Oc2c(Br)cnn(-c3ccc(C(C)C)cc3)c2=O)cc1` as the molecule, how does the IC50 [21] read?
**A.** 3.1 µM (active)

**Q.** What does the source list for `C[C@@H]1CN([C@H](C)CO)S(=O)(=O)c2ccc(-c3ccncc3)cc2O[C@@H]1CN(C)Cc1ccc(Oc2ccccc2)cc1`?
**A.** AC50 [22]: 1.16 µM (active); AC50 [23]: 616 nM (active); AC50 [24]: 589 nM (active); AC50 [25]: 539 nM (active); AC50 [26]: > 100 µM (inactive); AC50 [27]: 22.4 µM (active)
